According to ChEMBL document CHEMBL1201862, “PubChem BioAssay data set” (2004):
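48-hour exposure; five concentrations; linearly interpolated endpoints. At the GI50, growth is halved.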 Activity calls are given as the source filed them. Cut-off read from the data, not from the text of the source: active = GI50 up to about 1.1 µM and inactive = higher.

Tests used:
Experiment in all cases: inhibition of tumour cell growth, NCI panel, 48 h
786-0 = system: 786-0
A498 = system: A498
A549 = system: A549
ACHN = system: ACHN
BT-549 = system: BT-549
CAKI-1 = system: CAKI-1
CCRF-CEM = system: CCRF-CEM
COLO 205 = system: COLO 205
DU-145 = system: DU-145
EKVX = system: EKVX
HCC 2998 = system: HCC 2998
HCT-116 = system: HCT-116
HCT-15 = system: HCT-15
HL-60 = system: HL-60
HOP-62 = system: HOP-62
HOP-92 = system: HOP-92
HT-29 = system: HT-29
Hs-578T = system: Hs-578T
IGROV-1 = system: IGROV-1
K562 = system: K562
KM12 = system: KM12
LOX IMVI = system: LOX IMVI
M14 = system: M14
MCF7 = system: MCF7
MDA-MB-231 = system: MDA-MB-231
MDA-MB-435 = system: MDA-MB-435
MDA-N = system: MDA-N
MOLT-4 = system: MOLT-4
Malme-3M = system: Malme-3M
NCI-H226 = system: NCI-H226
NCI-H23 = system: NCI-H23
NCI-H460 = system: NCI-H460
NCI-H522 = system: NCI-H522
NCI/ADR-RES = system: NCI/ADR-RES
OVCAR-3 = system: OVCAR-3
OVCAR-4 = system: OVCAR-4
OVCAR-5 = system: OVCAR-5
OVCAR-8 = system: OVCAR-8
PC-3 = system: PC-3
RPMI-8226 = system: RPMI-8226
RXF 393 = system: RXF 393
SF-268 = system: SF-268
SF-295 = system: SF-295
SF-539 = system: SF-539
SK-MEL-28 = system: SK-MEL-28
SK-MEL-2 = system: SK-MEL-2
SK-MEL-5 = system: SK-MEL-5
SK-OV-3 = system: SK-OV-3
SN12C = system: SN12C
SNB-19 = system: SNB-19
SNB-75 = system: SNB-75
SR = system: SR
SW-620 = system: SW-620
T47D = system: T47D
TK-10 = system: TK-10
U-251 = system: U-251
UACC-257 = system: UACC-257
UACC-62 = system: UACC-62
UO-31 = system: UO-31

Structure (SMILES): COc1cc(CNC(=O)CCCCCCCCCCSSCCCCCCCCCCC(=O)NCc2ccc(O)c(OC)c2)ccc1O
- GI50 (786-0): > 10 µM (inactive)
- GI50 (A498): > 10 µM (inactive)
- GI50 (A549): > 10 µM (inactive)
- GI50 (ACHN): > 10 µM (inactive)
- GI50 (BT-549): > 10 µM (inactive)
- GI50 (CAKI-1): > 10 µM (inactive)
- GI50 (CCRF-CEM): > 10 µM (inactive)
- GI50 (COLO 205): > 10 µM (inactive)
- GI50 (DU-145): > 10 µM (inactive)
- GI50 (EKVX): > 10 µM (inactive)
- GI50 (HCC 2998): > 10 µM (inactive)
- GI50 (HCT-116): > 10 µM (inactive)
- GI50 (HCT-15): > 10 µM
- GI50 (HL-60): > 10 µM (inactive)
- GI50 (HOP-62): > 10 µM (inactive)
- GI50 (HOP-92): > 10 µM (inactive)
- GI50 (HT-29): > 10 µM (inactive)
- GI50 (Hs-578T): > 10 µM (inactive)
- GI50 (IGROV-1): > 10 µM (inactive)
- GI50 (K562): > 10 µM (inactive)
- GI50 (KM12): > 10 µM (inactive)
- GI50 (LOX IMVI): > 10 µM (inactive)
- GI50 (M14): > 10 µM (inactive)
- GI50 (MCF7): > 10 µM (inactive)
- GI50 (MDA-MB-231): > 10 µM (inactive)
- GI50 (MDA-MB-435): > 10 µM (inactive)
- GI50 (MDA-N): > 10 µM (inactive)
- GI50 (MOLT-4): > 10 µM (inactive)
- GI50 (Malme-3M): > 10 µM (inactive)
- GI50 (NCI-H226): > 10 µM (inactive)
- GI50 (NCI-H23): > 10 µM (inactive)
- GI50 (NCI-H460): > 10 µM (inactive)
- GI50 (NCI-H522): 0.918 µM (active)
- GI50 (NCI/ADR-RES): > 10 µM (inactive)
- GI50 (OVCAR-3): > 10 µM (inactive)
- GI50 (OVCAR-4): > 10 µM (inactive)
- GI50 (OVCAR-5): > 10 µM (inactive)
- GI50 (OVCAR-8): > 10 µM (inactive)
- GI50 (PC-3): > 10 µM (inactive)
- GI50 (RPMI-8226): > 10 µM (inactive)
- GI50 (RXF 393): 0.184 µM (active)
- GI50 (SF-268): > 10 µM (inactive)
- GI50 (SF-295): > 10 µM (inactive)
- GI50 (SF-539): > 10 µM (inactive)
- GI50 (SK-MEL-28): > 10 µM (inactive)
- GI50 (SK-MEL-2): > 10 µM (inactive)
- GI50 (SK-MEL-5): > 10 µM (inactive)
- GI50 (SK-OV-3): > 10 µM (inactive)
- GI50 (SN12C): > 10 µM (inactive)
- GI50 (SNB-19): > 10 µM (inactive)
- GI50 (SNB-75): > 10 µM (inactive)
- GI50 (SR): > 10 µM (inactive)
- GI50 (SW-620): > 10 µM (inactive)
- GI50 (T47D): > 10 µM (inactive)
- GI50 (TK-10): > 10 µM (inactive)
- GI50 (U-251): > 10 µM (inactive)
- GI50 (UACC-257): > 10 µM (inactive)
- GI50 (UACC-62): > 10 µM (inactive)

Structure (SMILES): C/C=C\C(C)=C/C(C)C(=O)CC(O)CC1CC(=O)NC(=O)C1 (stereo unspecified)
- GI50 (786-0): 13.5 µM (inactive)
- GI50 (A498): 28.6 µM (inactive)
- GI50 (A549): 21.5 µM (inactive)
- GI50 (ACHN): 17.5 µM (inactive)
- GI50 (BT-549): 34.2 µM (inactive)
- GI50 (CAKI-1): 7.13 µM (inactive)
- GI50 (CCRF-CEM): 10.1 µM (inactive)
- GI50 (COLO 205): 17.1 µM (inactive)
- GI50 (DU-145): 19.1 µM (inactive)
- GI50 (EKVX): > 100 µM (inactive)
- GI50 (HCC 2998): 33.5 µM (inactive)
- GI50 (HCT-116): 16.4 µM (inactive)
- GI50 (HCT-15): 13.4 µM
- GI50 (HL-60): 40.2 µM (inactive)
- GI50 (HOP-62): 12.1 µM (inactive)
- GI50 (HOP-92): 72.8 µM (inactive)
- GI50 (HT-29): 24 µM (inactive)
- GI50 (Hs-578T): 4.09 µM (inactive)
- GI50 (IGROV-1): 19 µM (inactive)
- GI50 (K562): 20.5 µM (inactive)
- GI50 (KM12): 14.6 µM (inactive)
- GI50 (LOX IMVI): 20.6 µM (inactive)
- GI50 (M14): 13.6 µM (inactive)
- GI50 (MCF7): 21 µM (inactive)
- GI50 (MDA-MB-231): > 42.3 µM (inactive)
- GI50 (MDA-MB-435): 28.4 µM (inactive)
- GI50 (MDA-N): 19.5 µM (inactive)
- GI50 (MOLT-4): 4.79 µM (inactive)
- GI50 (NCI-H226): 35.5 µM (inactive)
- GI50 (NCI-H23): 23.7 µM (inactive)
- GI50 (NCI-H460): 14.8 µM (inactive)
- GI50 (NCI-H522): 2.01 µM (inactive)
- GI50 (NCI/ADR-RES): 4.71 µM (inactive)
- GI50 (OVCAR-3): 22.3 µM (inactive)
- GI50 (OVCAR-4): 19.1 µM (inactive)
- GI50 (OVCAR-5): 4.86 µM (inactive)
- GI50 (OVCAR-8): 8.71 µM (inactive)
- GI50 (PC-3): 9.31 µM (inactive)
- GI50 (RPMI-8226): 19 µM (inactive)
- GI50 (RXF 393): 17.1 µM (inactive)
- GI50 (SF-268): 10.5 µM (inactive)
- GI50 (SF-295): 5.79 µM (inactive)
- GI50 (SF-539): 14 µM (inactive)
- GI50 (SK-MEL-28): 34.4 µM (inactive)
- GI50 (SK-MEL-2): 13.6 µM (inactive)
- GI50 (SK-MEL-5): 17.9 µM (inactive)
- GI50 (SK-OV-3): 5.77 µM (inactive)
- GI50 (SN12C): 13 µM (inactive)
- GI50 (SNB-19): 17.8 µM (inactive)
- GI50 (SNB-75): 5.27 µM (inactive)
- GI50 (SR): 10.9 µM (inactive)
- GI50 (SW-620): 20.2 µM (inactive)
- GI50 (T47D): 28.1 µM (inactive)
- GI50 (TK-10): 49.2 µM (inactive)
- GI50 (U-251): 31.2 µM (inactive)
- GI50 (UACC-257): 22.2 µM (inactive)
- GI50 (UACC-62): 9.73 µM (inactive)
- GI50 (UO-31): 20.1 µM (inactive)
